Results from patent US8168400B2, “Methods and kits for detection of thromboxane A2 metabolites” (Corgenix Medical Corporation, priority 2005, dated 2012).
“Also recorded” adds a separate entry of the source.

How the values were obtained:
[1] = system: monoclonal antibodies of the present invention (anti-11 dhTxB2 / 11 dh2,3dTxB2 mAb); test: Monoclonal antibody specificity: percent cross-reactivity (enzyme-based competition assay); assay type: binding, mouse; settings: for % Reactivity (cross reactivity): relative to 11 dh TxB2 = 100%
Protocol: The present invention provides a urinary 11dhTxB2 Competitive ELISA Assay. An illustrative standard curve was prepared (see FIG. 6) by spiking known amounts of 11dhTxB2 into low level urine diluted 1:5 in Tris assay buffer (0.1M Tris, 0.1% BSA) or into assay buffer alone. 100 μl of standards or actual samples (having taken known amounts of aspirin and diluted 1:5 in Tris assay buffer) was added to wells coated with goat anti-mouse antibody, followed by the addition of 50 μl of 11 dhTxB2-AP (alkaline phosphatase) tracer and 50 μl of 11 dhTxB2 mAb. The reactions were then allowed to incubate for a predetermined amount of time, typically with shaking at room temperature. In preferred embodiments the incubation is about two hours in length. Each well is then washed with a wash buffer and approximately 200 μl of substrate added (p-nitrophenyl-phosphate, pNPP). The reactions are then incubated again for approximately thirty minutes. A stop solution is added to each well, and the plate read for OD at 405 nm.
Antibody clones of the invention were tested to determine cross-reactivity against various Thromboxane A2 metabolites and other like compounds. Table 2 provides percent cross reactivity of antibodies of the present invention against these various compounds: […]

[2] = system: urinary 11dhTxB2 (TxA2 metabolites); test: Urinary 11dhTxB2 competitive ELISA in subjects on aspirin; assay type: in vivo, human; settings: for urinary 11dhTxB2 per mg creatinine, average patient value: healthy no-aspirin average 1119 pg/mg
Protocol: The present invention provides a urinary 11dhTxB2 Competitive ELISA Assay. An illustrative standard curve was prepared (see FIG. 6) by spiking known amounts of 11dhTxB2 into low level urine diluted 1:5 in Tris assay buffer (0.1M Tris, 0.1% BSA) or into assay buffer alone. 100 μl of standards or actual samples (having taken known amounts of aspirin and diluted 1:5 in Tris assay buffer) was added to wells coated with goat anti-mouse antibody, followed by the addition of 50 μl of 11 dhTxB2-AP (alkaline phosphatase) tracer and 50 μl of 11 dhTxB2 mAb. The reactions were then allowed to incubate for a predetermined amount of time, typically with shaking at room temperature. In preferred embodiments the incubation is about two hours in length. Each well is then washed with a wash buffer and approximately 200 μl of substrate added (p-nitrophenyl-phosphate, pNPP). The reactions are then incubated again for approximately thirty minutes. A stop solution is added to each well, and the plate read for OD at 405 nm. Results from the assay provide for the amount of 11dhTxB2 and 11 dh2,3dTxB2 present in the sample (note that results are compared to the standard curve). The amount of the two metabolites present in the sample is indirectly proportional to the optical density read at 405 nm. For clinical samples, creatinine values are also obtained, and data from assays presented as pg metabolite/mg creatinine. Initially, 171 urine samples were taken from subjects either off aspirin or on 81 or 325 mg aspirin/day. TxA2 metabolite amounts were determined for each sample using the methods and kits of the present invention. Values were normalized for urinary dilution by dividing TxA2 metabolite amounts by creatinine concentrations. 354 urine samples from subjects either on or off aspirin therapy were run using the methods and kits of the present invention. Values were calculated and normalized for urinary dilution by dividing by creatinine concentration, and the frequency of each concentration was calculated and shown in a frequency plot, FIG. 5. Subjects on aspirin are plotted with solid bars and subjects not on aspirin are plotted using hatched bars. Positive samples are below 1500 pg/mg creatinine cutoff, whereas negative samples are those that are above the 1500 pg/mg creatinine cutoff. As shown in FIGS. 4-5, clinical data can be obtained using the above-described methods. […] The assay detection range was suitable for measurement of 11dhTxB2 in a population (62-3122 pg 11dhTxB2/mg creatinine—see FIG. 7). […] All three levels of aspirin doses are statistically significant when compared to the healthy, no aspirin controls.

platelet COX-1 = target: T1, platelet COX-1 (Homo sapiens, UniProt P23219); settings: low dose aspirin; cited from earlier work
T1 construct: host or cells: platelets (in vivo, patients on low dose aspirin)
T1 sequence (P23219 24-599): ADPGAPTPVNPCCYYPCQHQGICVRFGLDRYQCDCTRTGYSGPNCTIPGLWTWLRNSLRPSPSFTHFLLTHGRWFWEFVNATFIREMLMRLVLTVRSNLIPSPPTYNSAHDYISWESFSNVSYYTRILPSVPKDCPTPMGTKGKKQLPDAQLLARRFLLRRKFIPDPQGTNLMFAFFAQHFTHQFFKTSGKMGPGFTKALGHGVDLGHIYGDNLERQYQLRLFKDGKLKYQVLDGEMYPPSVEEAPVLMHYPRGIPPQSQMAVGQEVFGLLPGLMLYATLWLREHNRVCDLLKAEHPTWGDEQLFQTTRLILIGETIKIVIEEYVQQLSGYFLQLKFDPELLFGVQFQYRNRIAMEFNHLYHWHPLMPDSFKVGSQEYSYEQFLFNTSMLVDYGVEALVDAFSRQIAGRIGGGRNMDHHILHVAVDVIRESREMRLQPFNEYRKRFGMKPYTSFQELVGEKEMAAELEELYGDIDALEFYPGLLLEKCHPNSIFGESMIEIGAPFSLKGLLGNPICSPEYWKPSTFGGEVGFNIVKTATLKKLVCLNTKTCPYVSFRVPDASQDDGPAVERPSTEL

[3] = low dose aspirin; patients with arterial vascular disease; cited from earlier work
[4] = aspirin ingestion present, 354 urine samples in total

Compound	reactivity of the antibodies with the compound (in words) [1]	% Reactivity (cross reactivity) [1]	also measured
CCCCC[C@H](O)/C=C/[C@H]1OC(O)C[C@H](O)[C@@H]1C/C=C\CC(=O)O (stereo partly shown) [2,3 dinor TxB2]	unreactive	1.93%	
O=C(O)CCCCC(=O)CCC1C(O)CC(=O)C1CCC(=O)O (stereo not shown) [2,3,4,5-tetranor-20-Carboxy 13,14-dihydro-15-keto PGE2]	unreactive	<0.01%	
O=C(O)CCCCC(=O)CCC1C(O)CC(O)C1CCC(=O)O (stereo not drawn) [2,3,4,5-tetranor-20-Carboxy 13,14-dihydro-15-keto PGF2α]	unreactive	<0.01%	
CCCCC[C@H](O)/C=C/[C@@H]1[C@@H](CC(=O)CCCCC(=O)O)[C@@H](O)C[C@H]1O [6-keto PGF1a]	unreactive	<0.01%	
CCCCCC(O)C=CC1OC(=O)CC(O)C1CC=CCCCC(=O)O (stereo not shown) [11 dh TxB2, 11-dehydro Thromboxane B2]	react; also recorded: high reactivity	100%	
CCCCCC(O)C=CC1OC(=O)CC(O)C1CC=CCC(=O)O (stereo not shown) [11-dehydro-2,3 dinor thromboxane B2]	react; also recorded: high reactivity	166%	
CCCCC[C@H](O)/C=C/[C@H]1C(=O)C[C@H](O)[C@@H]1C/C=C\CCCC(=O)O [PGD2]	unreactive	0.2%	
CCCCC[C@H](O)/C=C/[C@H]1[C@H](O)CC(=O)[C@@H]1C/C=C\CCCC(=O)O [PGE2]	unreactive	<0.01%	
CCCCC[C@H](O)/C=C/[C@H]1OC(O)C[C@H](O)[C@@H]1C/C=C\CCCC(=O)O (stereo partly shown) [TxB2, thromboxane B2]	unreactive	0.05%	
CC(=O)Oc1ccccc1C(=O)O [aspirin, acetyl salicylic acid]			urinary 11dhTxB2 per mg creatinine, average patient value ([2]; aspirin 81 mg/day): 418 pg/mg; urinary 11dhTxB2 per mg creatinine, average patient value ([2]; aspirin 162 mg/day): 471 pg/mg; urinary 11dhTxB2 per mg creatinine, average patient value ([2]; aspirin 325 mg/day): 377 pg/mg; number of urine samples Negative (>1500 pg/creatinine) [2, 4]: 16; number of urine samples Positive (<1500 pg/creatinine) [2, 4]: 251; block of platelet COX-1 activity (platelet COX-1): more than 95%; reduction of cardiovascular events [3]: ≤ 25%
